Results published in US12178892B2, “Compounds for positron emission tomography” (Endocyte, Inc., priority 2013, dated 2024).

Columns and labels:
KB tumor xenografts [1] = experiment: Ex vivo (postmortem) biodistribution, KB tumor xenografts; format: in vivo, nude mice; settings: for FR specificity: in both KB xenograft tumor tissues and A549 xenograft tumor tissues; for radiotracer level in kidneys: mouse, in vivo
Source text: EXAMPLE. […] Without being bound by theory, it is believed herein that the highest accumulation of radioactivity in kidneys, along with the relative low uptake of radiotracer in the hepatobiliary system i.e. liver, bile and intestine/feces supports that renal elimination is the predominant excretion pathway.

FR [2] = experiment: Binding in A549 xenograft homogenates; settings: A549 xenografts
A549 tumor xenografts = experiment: Ex vivo (postmortem) biodistribution, A549 tumor xenografts; design: species or system nude mice; settings: mouse
Source text: It is to be understood that the vertical axis has been expanded and that the kidney data is truncated. […] It is to be understood that the vertical axis has been expanded and that the kidney data is truncated. […] EXAMPLE. […] Without being bound by theory, it is believed herein that the highest accumulation of radioactivity in kidneys, along with the relative low uptake of radiotracer in the hepatobiliary system i.e. liver, bile and intestine/feces supports that renal elimination is the predominant excretion pathway.

PSMA = target: T1, PSMA (Homo sapiens, UniProt Q04609); experiment: In vitro study in PSMA(−) and PSMA(+) cell lines, Kd; format: cell-based; settings: PSMA(−) cell line (PC3) and PSMA(+) cell lines (LnCaP and PIP—PC3); ^67Ga as surrogate of ^68Ga
T1 construct: LnCap is a PSMA (+) cell line; and PIP—PC3 is a transfect cell line with higher PSMA expression; endogenous in cells; host or cells: LnCaP (endogenous) and PIP-PC3 (PSMA-transfected PC3); PC3 as the PSMA(-) control
T1 sequence (Q04609 whole entry): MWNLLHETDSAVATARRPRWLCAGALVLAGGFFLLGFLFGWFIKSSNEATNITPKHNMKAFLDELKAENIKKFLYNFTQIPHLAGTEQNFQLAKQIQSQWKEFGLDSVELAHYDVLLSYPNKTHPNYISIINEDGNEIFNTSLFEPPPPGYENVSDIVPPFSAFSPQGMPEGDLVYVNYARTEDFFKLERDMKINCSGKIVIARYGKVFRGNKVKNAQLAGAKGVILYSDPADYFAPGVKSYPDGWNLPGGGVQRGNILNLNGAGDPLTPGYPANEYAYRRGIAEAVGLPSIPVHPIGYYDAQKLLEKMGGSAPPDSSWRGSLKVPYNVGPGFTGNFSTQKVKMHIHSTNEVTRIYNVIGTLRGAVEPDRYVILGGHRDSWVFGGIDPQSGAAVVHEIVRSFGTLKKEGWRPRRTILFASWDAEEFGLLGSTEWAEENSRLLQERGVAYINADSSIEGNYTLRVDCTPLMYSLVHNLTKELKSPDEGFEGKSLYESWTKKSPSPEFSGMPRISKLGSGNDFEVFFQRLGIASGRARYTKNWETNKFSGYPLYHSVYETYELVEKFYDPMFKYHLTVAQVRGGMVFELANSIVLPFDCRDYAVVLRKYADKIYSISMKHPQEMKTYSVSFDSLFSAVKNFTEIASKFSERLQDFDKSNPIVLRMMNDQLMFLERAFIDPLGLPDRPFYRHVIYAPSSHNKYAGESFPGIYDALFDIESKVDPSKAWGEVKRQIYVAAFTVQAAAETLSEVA
Description: (§1) EXAMPLE. In vitro evaluation of DUPA-EAOA-Phe-Phe-NOTA-^68Ga radiotracer (^68Ga-QC08009). ^67Ga has a longer half life than ^68Ga (about 3.3 days versus about 68 minutes, respectively). Thus, ^67Ga is used as a surrogate of ^68Ga for in vitro evaluation of Kd values and tissue imaging. It is to be understood that the in vitro evaluation of Kd values and tissue imaging observed for ^67Ga is predictive of ^68Ga. DUPA-EAOA-Phe-Phe-NOTA-^67Ga (67Ga-NOTA-LC-PSMA2) was prepared in nearly quantitative radiochemical yield. […] PC3 is a PSMA (−) cell line; LnCap is a PSMA (+) cell line; and PIP—PC3 is a transfect cell line with higher PSMA expression.

[3] = test system: PSMA(+) prostate cancer tissues; experiment: Binding to PSMA(+) prostate cancer tissues (tissue imaging); settings: compared to ^67Ga-DKFZ-PSMA11
Description: as §1

PC3 cells = experiment: In vitro uptake by PC3 cells; format: cell-based; settings: PC3, PSMA (−) cell line
Description: as §1

in vivo = experiment: in vivo; design: species or system mice; settings: mouse, total radioactivity
Source text: (§2) EXAMPLE. In vivo PET imaging and BioD study of DUPA-EAOA-Phe-Phe-NOTA-^68Ga radiotracer (^68Ga-QC08009). […] Without being bound by theory, it is believed herein that the data support that the primary elimination pathway is in urine.

[4] = test system: PSMA (+) LnCaP xenografts; experiment: in vivo; design: species or system mice; settings: mouse
Source text: as §2

PIP—PC3 cells = experiment: In vitro uptake by PIP—PC3 cells; format: cell-based
Description: as §1

LnCaP cells = experiment: In vitro uptake by LnCaP cells; format: cell-based
Description: as §1

FR [5] = target: T2, FR (Homo sapiens, UniProt P15328); experiment: Binding to FR in Cal51 xenograft tumor crude homogenate (concentration dependent binding, Scatchard analysis); settings: Cal51 xenografts
T2 construct: to FR in KB and Cal51 tumor crude homogenate; from tissue; host or cells: KB and Cal51 tumour xenograft crude homogenates
T2 sequence (P15328 25-234): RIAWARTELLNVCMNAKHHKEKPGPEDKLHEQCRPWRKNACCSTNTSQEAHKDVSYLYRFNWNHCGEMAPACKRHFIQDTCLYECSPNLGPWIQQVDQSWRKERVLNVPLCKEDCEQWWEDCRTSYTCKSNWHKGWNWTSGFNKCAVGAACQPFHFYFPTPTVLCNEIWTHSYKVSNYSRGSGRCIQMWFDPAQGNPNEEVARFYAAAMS
Description: (§3) EXAMPLE. The specificity of the radionuclide containing conjugates binding to FR is evaluated against KB xenografts homogenates and Cal51 xenografts homogenates. […] Scatchard analyses were also performed. […] Without being bound by theory, it is believed herein that the moderate expression of FR in Cal51 xenografts accounts for the lower binding affinity. Binding affinities of ^18F-AIF-QC07017 (2) to FR in KB and Cal51 tumor crude homogenate.

FR [6] = target: T2, FR; experiment: Binding to FR in KB xenograft tumor crude homogenate (concentration dependent binding, Scatchard analysis); settings: for non-specific binding: KB homogenates; for binding sites and affinity (Scatchard analyses): all cell xenografts
Description: as §3

KB tumor xenografts [7] = experiment: μPET imaging under baseline and competed conditions in nude mice bearing KB tumor xenografts; format: in vivo; settings: competed group, 100 μg of folic acid 10 min before i.v. injection
Description: EXAMPLE. μPET imaging was performed on nude mice bearing KB tumor xenografts under baseline and competed conditions to evaluate the in vivo binding specificity of ^18F-AIF-QC07017 (2) to FR. Nude mice bearing KB tumor xenografts on their left shoulder were injected with 0.30-0.40 mCi (2). […] Without being bound by theory, it is believed herein that the high radioactivity found in kidneys was due to the uptake mediated by FR that is expressed in the proximal tubule cells in kidneys and the potential accumulation of radiotracer via renal excretion, which was further supported by the biodistribution studies described herein. With the exception of the liver, significant uptake in other organs was not observed.

[8] = KB xenografts, tumor crude homogenate

With Nc1nc2ncc(CNc3ccc(C(=O)N[C@@H](CCC(=O)NCCOCCOCCOCCOCCOCCOCCOCCOCCOCCOCCOCCOCCC(=O)NCCNC(=O)CN4CCN(CC(=O)O)CCN(CC(=O)O)CC4)C(=O)O)cc3)nc2c(=O)[nH]1 (Al18F complex, metal not drawn) [^18F-AIF-QC07043] the FR specificity (KB tumor xenografts [1]) was “comparable to etarfolatide (EC20)”, the “radiotracer level in kidneys” value (KB tumor xenografts [1]) was “highest signal” and the “binding affinity (in words)” value (FR [2]) was “lowest binding affinity”. For the same compound, the “accumulation in A549 xenograft tumor tissues” value (A549 tumor xenografts) was “comparable to the liver”.
For O=C(O)CCC(NC(=O)NC(CCC(=O)NCCCCCCCC(=O)N[C@@H](Cc1ccccc1)C(=O)N[C@@H](Cc1ccccc1)C(=O)NCCNC(=O)CN1CCN(CC(=O)O)CCN(CC(=O)O)CC1)C(=O)O)C(=O)O (single isomer, unassigned) [^67Ga-NOTA-LC-PSMA2, DUPA-EAOA-Phe-Phe-NOTA-^67Ga, metal not drawn], the Kd (PSMA) was 8.45 ± 2.16 nM and the “binding to PSMA(+) prostate cancer tissues” value [3] was “superior binding”.
With O=C(O)CCC(NC(=O)NC(CCC(=O)NCCCCCCCC(=O)N[C@@H](Cc1ccccc1)C(=O)N[C@@H](Cc1ccccc1)C(=O)NCCNC(=O)CN1CCN(CC(=O)O)CCN(CC(=O)O)CC1)C(=O)O)C(=O)O (single isomer, unassigned) [^68Ga-QC08009, DUPA-EAOA-Phe-Phe-NOTA-^68Ga, metal not drawn] the uptake by cells (PC3 cells) was “minimal”, the “uptake by cells when competed” value (PC3 cells; competing ligand) was “did not change when competed” and the tissue uptake dose (in vivo) was 4.29 %ID. For the same compound, the accumulation in kidneys [4] was “minor accumulation”, the “uptake by cells when competed” value (PIP—PC3 cells; PIP—PC3, competing ligand) was “blocked by competing ligand” and the uptake by cells (PIP—PC3 cells; PIP—PC3, transfect cell line with higher PSMA expression) was “substantial, with PIP—PC3 cells showing the highest uptake”. The uptake by cells (LnCaP cells; PSMA (+) cell line) was “substantial” and the “uptake by cells when competed” value (LnCaP cells; competing ligand) was “blocked by competing ligand”.
In the case of Nc1nc2ncc(CNc3ccc(C(=O)N[C@@H](CCC(=O)NCCOCCOCCNC(=O)CN4CCN(CC(=O)O)CCN(CC(=O)O)CC4)C(=O)O)cc3)nc2c(=O)[nH]1 [^18F-AIF-QC07017], the “binding affinity (in words)” value (FR [5]) is reported as “Moderate binding affinity”, the Bmax (FR [5]; tumor crude homogenate) is reported as 36 nM and the Kd (FR [5]; tumor crude homogenate) is reported as 1.1 nM. The non-specific binding (FR [6]) was “Significant non-specific binding was not observed”, the “binding affinity (in words)” value (FR [6]; KB xenografts) was “high specific binding affinity” and the Bmax (FR [6]; [8]) was 511 nM. The Kd (FR [6]; [8]) was 0.7 nM, the “binding sites and affinity (Scatchard analyses)” value (FR [6]) was “bound one site with high affinity” and the “binding by self competition” value (FR [6]; human tumor xenografts (KB and Cal51)) was “Displaceable and saturable binding”. For the same compound, the FR specificity (KB tumor xenografts [1]) was “comparable to etarfolatide (EC20)”, the “radiotracer level in kidneys” value (KB tumor xenografts [1]) was “highest signal” and the “binding affinity (in words)” value (FR [2]) was “lowest binding affinity”. The “accumulation in A549 xenograft tumor tissues” value (A549 tumor xenografts) was “comparable to the liver” and the “tumor uptake under competition with folic acid” value (KB tumor xenografts [7]) was “completely inhibited”.
For Nc1nc2ncc(CNc3ccc(C(=O)N[C@@H](CCC(=O)NCCOCCOCCOCCOCCOCCOCCOCCOCCOCCOCCOCCOCCC(=O)NCCNC(=O)CN4CCN(CC(=O)O)CCN(CC(=O)O)CC4)C(=O)O)cc3)nc2c(=O)[nH]1 [^18F-AIF-QC07043], the “binding affinity (in words)” value (FR [5]) was “Moderate binding affinity”, the Bmax (FR [5]; tumor crude homogenate) was 13 nM and the non-specific binding (FR [6]) was “Significant non-specific binding was not observed”. The “binding affinity (in words)” value (FR [6]; KB xenografts) was “high specific binding affinity”, the Bmax (FR [6]; [8]) was 241 nM and the “binding sites and affinity (Scatchard analyses)” value (FR [6]) was “bound one site with high affinity”.
